Measurements published in US7329518B2, “Enzyme for producing optically active pyridineethanol derivatives” (Kaneka Corporation, priority 1999, dated 2008).

How the values were obtained:
Format in all cases: biochemical, Candida maris IFO 10003
FPDH [1] = assay: Oxidation activity of FPDH against various compounds as substrates; settings: substrate 1 mM; 5-(1-(R)-hydroxyethyl)furo[2,3-c]pyridine = 100%; 0.25 mM NAD+, pH 8.0, 30° C.
Experimental: Further, FPDH was examined for oxidation activity against various compounds. The oxidation activity was measured by allowing the reaction to proceed at 30° C. for 3 minutes in 3.0 ml of a reaction mixture containing 1 mM substrate, 0.25 mM NAD^+, 0.3% (vol/vol) dimethyl sulfoxide and 0.05 ml of the enzyme solution in 100 mM phosphate buffer (pH 8.0) and measuring the increase in absorbance at the wavelength 340 nm. These conditions were employed as standard reaction conditions for oxidizing activity substrate measurement. The enzyme activity reducing 1 μmole of NAD^+ to NADH in one minute under these reaction conditions was defined as 1 unit. The data shown in Table 10 are relative activities with the oxidation activity against the substrate 5-(1-(R)-hydroxyethyl)furo[2,3-c]pyridine being taken as 100%.

FPDH [2] = assay: Behaviors of FPDH against inhibitors (reducing activity measurement with added compounds and metal salts); settings: inhibitor 0.1 mM; activity without inhibitor = 100%; 1 mM 5-acetylfuro[2,3-c]pyridine, 0.25 mM NADH, pH 6.5, 30° C.
FPDH [3] = assay: Optimal temperature and optimal pH for the activity of FPDH; settings: pH varied 3.5 to 9.0; acetate, phosphate and Tris-hydrochloride buffer
Experimental: Hereafter, the reducing activity was measured by allowing the reaction to proceed at 30° C. for 3 minutes in 3.0 ml of a reaction mixture containing 1 mM 5-acetylfuro[2,3-c]pyridine (substrate), 0.25 mM NADH, 0.3% (vol/vol) dimethyl sulfoxide and 0.05 ml of the enzyme solution in 100 mM phosphate buffer (pH 6.5) and measuring the decrease in absorbance at the wavelength 340 nm. These conditions were employed as standard reaction conditions for reducing activity measurement. The enzyme activity oxidizing 1 μmole of NADH to NAD^+ in one minute under these reaction conditions was defined as 1 unit.
Activity measurements were conducted under the standard reaction conditions for reducing activity measurement as described in Example 14 except that the temperature alone was varied from 20 to 80° C.
Activity measurements were conducted under the standard reaction conditions for reducing activity measurement as described in Example 14 while varying the pH within the range of 3.5 to 9.0 using acetate buffer, phosphate buffer and Tris-hydrochloride buffer as the buffer solution.

Molecule | Relative activity (oxidation activity) (FPDH [1]) | other results
CC(O)c1ccccn1 (centres unmarked) [1-(2-Pyridyl)ethanol] | 23% | –
CC(O)c1cccnc1 (centres unmarked) [1-(3-Pyridyl)ethanol] | 110% | –
CC(O)c1ccncc1 (centres unmarked) [1-(4-Pyridyl)ethanol] | 24% | –
C=CC(C)O (centres unmarked) [1-Buten-3-ol] | 261% | –
C=CCC(C)O (centres unmarked) [4-Penten-2-ol] | 172% | –
CC(O)CCc1ccccc1 (centres unmarked) [4-Phenyl-2-butanol] | 219% | –
C[C@@H](O)c1ccccc1 [(R)-1-Phenylethanol] | 225% | –
C[C@@H](O)c1cc2ccoc2cn1 [(R)-5-(1-Hydroxyethyl)furo[2,3-c]pyridine] | 100% | –
CC(C)O [Isopropanol] | 226% | –
O=C(O)c1cc[c]([Hg][Cl])cc1 [p-Chloromercuribenzoic acid] | – | Relative activity (FPDH [2]): 100%
FPDH: purified NADH-dependent enzyme from Candida maris IFO 10003 reducing 5-acetylfuro[2,3-c]pyridine to the (R)-alcohol; SEQ ID NO:1 (protein, listed as Candida maris) MSYNFANKVLIVTGGLSGIGLAVAKKFLQLGAKVTISDISATEKYNTVVGEFKTEGIDVKNVQYIQADASKEADNEKLISETLSAFGDLDYVCANAGIATFTQTTDISYDVWRKVTSINLDGVFMLDKLAAQYFLSKNKPGAIVNMGSIHSYVAAPGLSHYGAAKGGLKLLTQTMALEYAAKGIRVNSVNPGYIKTPLLDICPKEHMDYLITQHPIGRLGKPEEIASAVAFLCSDEATFINGISLLVDGGYTAR | – | Optimal pH (FPDH [3]): 5.0-6.0
